According to PubChem BioAssay (NCI):
Where “and” joins values, the source holds several entries; their conditions need not be identical. Equal values may be shown once.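 Test compounds were applied to cells in 96-well plates for 48 hours at 5 doses. GI50 marks 50% less growth. TGI: total growth inhibition.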

Test system: MDA-MB-468 breast
Experiment: NCI-60 cell line screen, 48 h

| SMILES | GI50 | TGI |
| --- | --- | --- |
| Cc1cc(N/N=C/c2nc(-c3ccc(Br)cc3)oc2C)c2cc(Br)ccc2n1 | 1.75 µM | 4.85 µM |
| COc1cc2ncn(-c3cc(OCCc4ccccc4)c(C(N)=O)s3)c2cc1OC | 3.35 µM | 24.2 µM |
| COc1ccc2c(c1)C(C)Cc1c(ncnc1-n1c(C)nc3ccccc31)N2C (stereo unspecified) | 3.05 µM | 20.5 µM |
| O=C(O)c1ccc(-n2c(=O)n(-c3cccc(C(F)(F)F)c3)c(=O)c3cc(-c4ccc(F)cc4F)ccc32)cc1 | 2.16 µM | 5.94 µM |
| COc1ccc(-c2oc3cc(O)c(OC)c(O)c3c(=O)c2OC)cc1O | 0.312 µM | 4.14 µM |
| COc1ccc2ncn(-c3cc(O[C@H](C)c4ccccc4Cl)c(C(N)=O)s3)c2c1 | 0.00667 µM | 0.04 µM |
| CC(=O)O[C@H](C[C@H](C(C)C)N(C)C(=O)[C@@H](NC(=O)[C@H]1CCCCN1C)C(C)C)c1nc(C(=O)N[C@@H](Cc2ccccc2)C[C@H](C)C(=O)O)c(CCOCc2ccccc2)s1 | < 0.001 µM | > 10 µM |
| O=C(Nc1ccc(Br)cc1)c1ccc(Cl)c(Cl)c1 | 7.5 µM | > 100 µM |
| CN(CCCNC(=O)Cc1ccc2ccc3cccc4ccc1c2c34)CCCNc1cc(-c2ccc3ccccc3c2)nc2ccccc12 | 1.42 µM | 2.75 µM |
| CN1CCN(c2ccc(Nc3nc(NCCCNS(=O)(=O)c4ccc(Cl)cc4)c4sccc4n3)cc2)CC1 | 4.03 µM | 16.3 µM |
| CC(C)N=c1cc2n(-c3ccc(Cl)cc3)c3ccccc3nc-2cc1Nc1ccc(Cl)cc1 | 0.56 µM | 1.67 µM |
| Cc1ccc(S(=O)(=O)NCCNc2nccc(-c3c(-c4ccc(F)cc4)nc4sccn34)n2)cc1 | 4.2 µM | > 100 µM |
| O=C(/C=C/c1cc(CN2CCOCC2)c(O)c2ncccc12)c1cc(CN2CCOCC2)c(O)c2ncccc12 | 0.0346 µM | 0.683 µM |
| CCc1ccccc1NC(=O)c1sc2nc3c(cc2c1N)C(=O)CCC3 | 0.235 µM | 44.7 µM |
| Nc1nc(SN=Nc2ccc(S(N)(=O)=O)cc2)c2[nH]cnc2n1 | 0.284 µM | 4.11 µM |
| NC(N)=NCCCCCNc1noc(Cc2c[nH]c3cc(Br)ccc23)n1 | 2.01 µM | 7.04 µM |
| C[C@]12CC[C@@H]3c4ccc(O)cc4CC[C@H]3[C@@H]1CC[C@@H]2NS(=O)(=O)c1cccc(F)c1 | 2.42 µM | 9.25 µM |

| SMILES | GI50 | TGI |
| --- | --- | --- |
| CCn1c(CO)nn(-c2cc(O[C@@H](C)C(F)(F)F)c(C(=O)Nc3c(F)cccc3Cl)cc2F)c1=O | 3.28 µM | > 72.3 µM |
| COc1cc(C2=C(c3cn(C)c4ccccc34)COC2=O)cc(OC)c1OC | 0.0319 µM | 0.38 µM |
| CC(C)S(=O)(=O)c1ccccc1Nc1nc(Nc2cccc(NC(=O)CN)c2)ncc1Cl | 0.0999 µM | 1.86 µM |
| O=[N+]([O-])c1ccc2c(c1)C(c1ccccc1Cl)=Nc1cn[nH]c1N2 | 12.5 µM | > 25 µM |
| COc1cc2c3c(n(CCCN4CCC[C@H]4C(N)=O)c(=O)c2cc1OC)-c1cc2c(cc1C3=O)OCO2 | 0.0456 µM | 0.316 µM |
| COCCOc1cnc2ccn([C@H](C)c3nnc4c(F)cc(-c5cnn(C)c5)cn34)c(=O)c2c1 | > 100 µM | > 100 µM |
| O=C(Nc1ccc(-n2cc(-c3ccncc3)c(-c3ccc(Cl)c(O)c3)n2)cc1)Nc1ccc(Cl)c(C(F)(F)F)c1 | 1.46 µM | 3.4 µM |
| Cn1cc(C2=C(c3cn(CCCCCN)c4ccccc34)C(=O)NC2=O)c2ccccc21 | 7.54 µM | > 25 µM |
| CCC(C)(C)c1ccc(OCCCCCCN2CCNCC2)cc1 | 1.76 µM | 3.47 µM |
| Cc1cc[c-]cc1.Fc1c[c-]c(-c2ccccn2)c(F)c1.[Pt+2].c1ccc(P(C[PH+](c2ccccc2)c2ccccc2)c2ccccc2)cc1 | 1.55 µM | 5.55 µM |
| NC(CS/C(Cl)=C/Cl)C(=O)O (stereo unspecified) | 2.99 µM | 16.7 µM |
| COc1cc(OC)c(S(N)(=O)=O)cc1C(=O)/C=C/c1ccc(Cl)cc1 | 1.45 µM | 3.08 µM |
| COc1cc2c(c(OC)n1)[C@]1(O)[C@H](O)[C@H](CN(C)C)[C@@H](c3ccccc3)[C@]1(c1ccc(C#N)cc1)O2 | < 0.0157 µM and 0.0158 µM | 0.482 µM and 1.44 µM |
| C=C1C(=O)O[C@H]2[C@H]1CC/C(COC(=O)c1ccc(Cl)nc1)=C\CC[C@@]1(C)O[C@@H]21 | 1.21 µM | 3.5 µM |
| O=C(COc1ccc(/C=C2\CSc3ccccc3C2=O)cc1)Nc1nccs1 | 1.84 µM | 4 µM |
| C[C@]12CCc3nc(Nc4ccccc4)sc3C1=CC[C@@H]1[C@@H]2CC[C@]2(C)/C(=N/NC(N)=S)CC[C@@H]12 | 1.87 µM | 5.38 µM |
